Data taken from patent US20230040770A1, “HETEROCYCLIC COMPOUND AND USE THEREOF” (TAKEDA PHARMACEUTICAL COMPANY LIMITED, priority 2019, published 2023).

Tests used:
[1] = target: T1, human orexin type 2 receptor (Homo sapiens, UniProt O43614); assay: Measurement of orexin type 2 receptor agonist activity (calcium indicator fluorescence, CHO cells forcibly expressing human OX2 receptor); format: cell-based; conditions: compound at 3 μM; 0% = DMSO, 100% = orexin A (human) 10 nM
T1 construct: expressed in transfected cells
T1 sequence (O43614 1-444): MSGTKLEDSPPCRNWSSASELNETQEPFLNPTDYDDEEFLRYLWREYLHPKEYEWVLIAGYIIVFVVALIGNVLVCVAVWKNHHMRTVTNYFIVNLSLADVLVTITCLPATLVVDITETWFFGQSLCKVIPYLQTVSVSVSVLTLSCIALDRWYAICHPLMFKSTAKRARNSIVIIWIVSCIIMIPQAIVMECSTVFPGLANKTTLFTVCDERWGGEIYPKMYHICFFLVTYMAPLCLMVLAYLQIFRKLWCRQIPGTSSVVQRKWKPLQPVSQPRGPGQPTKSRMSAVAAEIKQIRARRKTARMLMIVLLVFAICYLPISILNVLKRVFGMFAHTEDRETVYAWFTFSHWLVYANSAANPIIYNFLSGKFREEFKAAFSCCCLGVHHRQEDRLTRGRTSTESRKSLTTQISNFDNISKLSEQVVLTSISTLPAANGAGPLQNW
How it was run: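 CHO-dhfr cells stably expressing human OX2R, loaded with Fluo-4 AM (30 min 37 °C, then 30 min RT), then given test compound. Calcium fluorescence read by FDSS over ~2 min. Activity (%) scaled from DMSO (0%) to 10 nM final orexin A (100%).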

cynomolgus monkeys = assay: Evaluation of wake-promoting effects in cynomolgus monkeys (EEG/EMG); format: in vivo, cynomolgus monkey; conditions: Macaca fascicularis, time spent in wakefulness for 4 h after administration, read-out: Wakefulness time (% of vehicle treatment) (Mean); for response vs control in vivo at 0.3 mg/kg / response vs control in vivo at 0.1 mg/kg: sc; for response vs control in vivo at 0.3 mg/kg: 0.3 mg/kg s.c. at ZT12; for response vs control in vivo at 3 mg/kg: 3 mg/kg p.o. at ZT12; for response vs control in vivo at 0.1 mg/kg: 0.1 mg/kg s.c. at ZT12
Experimental: The wake-promoting effects were evaluated by measuring the electroencephalogram (EEG) and electromyogram (EMG) in cynomolgus monkeys. Under isoflurane anesthesia (1-5%, Pfizer Japan Inc., Tokyo, Japan), male cynomolgus monkeys (3-5 years old, Hamri Co., Ltd., Ibaraki, Japan) were surgically implanted with radio-telemetry transmitters (TL10M3-D70-EEE, Data Sciences International Inc., MN, USA). EEG electrodes were screwed into the skull at the parietal area. EMG electrodes were implanted on the cervical muscles. After the surgery, each monkey was given penicillin (100,000 units/head, i.m., Meiji Seika Pharma Co., Ltd., Tokyo, Japan), buprenorphine (0.02 mg/kg, i.m., Otsuka Pharmaceutical Co., Ltd., Tokyo, Japan) and prednisolone (1 mg/kg, s.c., Kyoritsu Seiyaku Co., Ltd., Tokyo, Japan) daily for one week. After at least a 1-month recovery period in home cages, the monkeys were habituated to the recording chamber placed in a soundproof room. EEG and EMG signals were recorded using the telemetry system (Dataquest ART software, Data Sciences International Inc., MN, USA) and the signals were analyzed using SleepSign software (Kissei Comtec Co., Ltd., Nagano, Japan). After confirming long sleep in dark phase in the experimental room, we used animals to examine the wake-promoting effect of compounds.
Oral test compounds (3 or 10 mg/kg) suspended in 0.5% methylcellulose aqueous solution, or vehicle (i.e., 0.5% methylcellulose aqueous solution) was administered orally (p.o.) to monkeys at zeitgeber time 12 (ZT12) in a volume of 5 mL/kg body weight in cross-over design or pre-post design (n=1-4). EEG and EMG recordings were performed for 4 h after the compound administration. The time spent in wakefulness for 4 h after administration (% of vehicle treatment) was calculated by using SleepSign.
Parenteral test compounds (0.1 or 0.3 mg/kg) dissolved in a mixed solution comprising 5% DMSO, 5% Cremophor EL, 20% PEG400 and 70% soluplus (1% (w/v)), or vehicle (i.e., a mixed solution comprising 5% DMSO, 5% Cremophor EL, 20% PEG400 and 70% soluplus (1% (w/v))) was administered subcutaneously (s.c.) to monkeys at ZT12 in a volume of 0.5 mL/kg body weight in a pre-post design (n=1-2). EEG and EMG recordings were performed for 4 h after the compound administration. The time spent in wakefulness for 4 h after administration (% of vehicle treatment) was calculated by using SleepSign.

[2] = Evaluation of microsome stability in human; format: in vitro ADME; conditions: pH 7.4; in vitro intrinsic metabolic clearance; human liver microsomes 0.2 mg/mL, 1 μmol/L test compound, NADPH-generating system
Experimental: Human liver microsomes were purchased from Xenotech, LLC (Lenexa, Kans.). An incubation mixture consisted of microsomes in 50 mmol/L KH2PO4—K2HPO4 phosphate buffer (pH 7.4) and 1 μmol/L test compound. The concentration of microsomal protein was 0.2 mg/mL. An NADPH-generating system (5 mmol/L MgCl2, 5 mmol/L glucose-6-phosphate, 0.5 mmol/L beta-NADP+ and 1.5 unit/mL glucose-6-phosphate dehydrogenase) was added to the incubation mixture with a half volume of the reaction mixture to initiate the enzyme reaction. The reaction was terminated 15 and 30 minutes after the initiation of the reaction by mixing the reaction mixture with acetonitrile, followed by centrifugation at 2500 rpm for 10 min. The supernatant was subjected to LC/MS/MS analysis. The metabolic rate constant was calculated as the slope of the remaining rate-time plot. The in vitro intrinsic metabolic clearance was calculated by dividing initial metabolic rate constant by microsomal protein in the incubation mixture.

| SMILES | OX2R agonist activity (3 μM, %) [1] [%] | response vs control in vivo at 0.3 mg/kg (cynomolgus monkeys) [%] | microsomal CLint at 1 μmol/L [2] [µL/min/mg] | response vs control in vivo at 10 mg/kg (cynomolgus monkeys; po, 10 mg/kg p.o. at ZT12) [%] | response vs control in vivo at 3 mg/kg (cynomolgus monkeys; po) [%] | response vs control in vivo at 0.1 mg/kg (cynomolgus monkeys) [%] |
| --- | --- | --- | --- | --- | --- | --- |
| Cc1cccc(-c2cccc(C[C@H]3[C@@H](NS(=O)(=O)N(C)C)[C@@H](F)CN3C(=O)C3(O)CCC3)c2F)c1 [Example 462, N′-[(2S,3R,4S)-4-fluoro-2-[(2-fluoro-3′-methyl[1,1′-biphenyl]-3-yl)methyl]-1-(1-hydroxycyclobutane-1-carbonyl)pyrrolidin-3-yl]-N,N-dimethylsulfuric diamide] | 78 | 365 |  |  |  |  |
| CCS(=O)(=O)N[C@H]1[C@@H](F)CN(C(=O)C2CC2)[C@H]1Cc1cccc(-c2cc(F)cc(F)c2)c1F [Example 236, N-{(2S,3R,4S)-1-(cyclopropanecarbonyl)-4-fluoro-2-[(2,3′,5′-trifluoro[1,1′-biphenyl]-3-yl)methyl]pyrrolidin-3-yl}ethanesulfonamide] | 100 |  | 67 | 716 |  |  |
| CCS(=O)(=O)N[C@@H]1[C@H](Cc2cccc(-c3cc(F)cc(F)c3)c2F)N(C(=O)C2CC2)CC1(F)F [Example 144, N-{(2S,3R)-1-(cyclopropanecarbonyl)-4,4-difluoro-2-[(2,3′,5′-trifluoro[1,1′-biphenyl]-3-yl)methyl]pyrrolidin-3-yl}ethanesulfonamide] | 88 |  | 13 |  | 649 |  |
| CCS(=O)(=O)N[C@@H]1[C@H](Cc2cccc(-c3cc(F)cc(F)c3)c2F)N(C(=O)[C@H]2C[C@@H](F)C2)CC1(F)F [Example 380, N-{(2S,3R)-4,4-difluoro-1-((1s,3R)-3-fluorocyclobutane-1-carbonyl)-2-[(2,3′,5′-trifluoro[1,1′-biphenyl]-3-yl)methyl]pyrrolidin-3-yl}ethanesulfonamide] | 93 |  | 39 |  | 484 |  |
| CCS(=O)(=O)N[C@H]1[C@@H](F)CN(C(=O)N2CCC2)[C@H]1Cc1cccc(-c2cccc(C)c2)c1F [Example 451, N-{(2S,3R,4S)-1-(azetidine-1-carbonyl)-4-fluoro-2-[(2-fluoro-3′-methyl[1,1′-biphenyl]-3-yl)methyl]pyrrolidin-3-yl}ethanesulfonamide] | 82 |  |  |  |  | 225 |
| CC(C)(O)C(=O)N1CC(F)(F)[C@H](NS(C)(=O)=O)[C@@H]1Cc1cccc(-c2cc(F)cc(F)c2)c1F [Example 2, N-{(2S,3R)-4,4-difluoro-1-(2-hydroxy-2-methylpropanoyl)-2-[(2,3′,5′-trifluoro[1,1′-biphenyl]-3-yl)methyl]pyrrolidin-3-yl}methanesulfonamide] | 106 |  | 40 |  | 600 |  |
| CCS(=O)(=O)N[C@@H]1[C@H](Cc2cccc(-c3cc(F)cc(F)c3)c2F)N(C(=O)C(C)(C)O)CC1(F)F [Example 3, N-{(2S,3R)-4,4-difluoro-1-(2-hydroxy-2-methylpropanoyl)-2-[(2,3′,5′-trifluoro[1,1′-biphenyl]-3-yl)methyl]pyrrolidin-3-yl}ethanesulfonamide] | 106 |  |  |  | 613 |  |
| Cc1cccc(-c2cccc(C[C@H]3[C@@H](NS(=O)(=O)N(C)C)[C@@H](F)CN3C(=O)N3CCC3)c2F)c1 [Example 463, N′-{(2S,3R,4S)-1-(azetidine-1-carbonyl)-4-fluoro-2-[(2-fluoro-3′-methyl[1,1′-biphenyl]-3-yl)methyl]pyrrolidin-3-yl}-N,N-dimethylsulfuric diamide] | 79 |  |  |  |  | 483 |
| CS(=O)(=O)N[C@@H]1[C@H](Cc2cccc(-c3cc(F)cc(F)c3)c2F)N(C(=O)[C@H]2C[C@@H](F)C2)CC1(F)F [Example 433, N-{(2S,3R)-4,4-difluoro-1-(3-fluorocyclobutane-1-carbonyl)-2-[(2,3′,5′-trifluoro[1,1′-biphenyl]-3-yl)methyl]pyrrolidin-3-yl}methanesulfonamide] | 101 |  | 16 |  | 727 |  |
| CS(=O)(=O)N[C@@H]1[C@H](Cc2cccc(-c3cc(F)cc(F)c3)c2F)N(C(=O)C23CC(C2)C3)CC1(F)F [Example 87, N-{(2S,3R)-1-(bicyclo[1.1.1]pentane-1-carbonyl)-4,4-difluoro-2-[(2,3′,5′-trifluoro[1,1′-biphenyl]-3-yl)methyl]pyrrolidin-3-yl}methanesulfonamide] | 93 |  | 9 |  | 832 |  |
| Cc1cccc(-c2cccc(C[C@H]3[C@@H](NS(=O)(=O)N(C)C)C(F)(F)CN3C(=O)N3CCC3)c2F)c1 [Example 443, N′-{(2S,3R)-1-(azetidine-1-carbonyl)-4,4-difluoro-2-[(2-fluoro-3′-methyl[1,1′-biphenyl]-3-yl)methyl]pyrrolidin-3-yl}-N,N-dimethylsulfuric diamide] | 90 |  |  |  |  | 532 |
| CN(C)S(=O)(=O)N[C@@H]1[C@H](Cc2cccc(-c3cc(F)cc(F)c3)c2F)N(C(=O)[C@H]2CCO2)CC1(F)F [Example 542, N′-{(2S,3R)-4,4-difluoro-1-[(2R)-oxetane-2-carbonyl]-2-[(2,3′,5′-trifluoro[1,1′-biphenyl]-3-yl)methyl]pyrrolidin-3-yl}-N,N-dimethylsulfuric diamide] | 100 | 505 |  |  |  |  |
| CCS(=O)(=O)N[C@H]1[C@@H](F)CN(C(=O)N2CCC2)[C@H]1Cc1cccc(-c2cc(F)cc(F)c2)c1F [Example 450, N-{(2S,3R,4S)-1-(azetidine-1-carbonyl)-4-fluoro-2-[(2,3′,5′-trifluoro[1,1′-biphenyl]-3-yl)methyl]pyrrolidin-3-yl}ethanesulfonamide] | 86 | 814 |  |  |  |  |
| Cc1cccc(-c2cccc(C[C@H]3[C@@H](NS(=O)(=O)N(C)C)[C@@H](F)CN3C(=O)N(C)C)c2F)c1 [Example 459, (2S,3R,4S)-3-[(dimethylsulfamoyl)amino]-4-fluoro-2-[(2-fluoro-3′-methyl[1,1′-biphenyl]-3-yl)methyl]-N,N-dimethylpyrrolidine-1-carboxamide] | 78 | 431 |  |  |  |  |
